Laboratory results taken from ChEMBL document CHEMBL1255520, “Azole derivatives as histamine H3 receptor antagonists, part I: thiazol-2-yl ethers” (Bioorg Med Chem Lett, 2010).
pKi: −log10 of the molar value.

Target: Histamine H3 receptor (Homo sapiens, UniProt Q9Y5N1)
Test: Displacement of [125I]iodoproxyfan human histamine H3 receptor

Sequence of Histamine H3 receptor (Q9Y5N1 whole entry): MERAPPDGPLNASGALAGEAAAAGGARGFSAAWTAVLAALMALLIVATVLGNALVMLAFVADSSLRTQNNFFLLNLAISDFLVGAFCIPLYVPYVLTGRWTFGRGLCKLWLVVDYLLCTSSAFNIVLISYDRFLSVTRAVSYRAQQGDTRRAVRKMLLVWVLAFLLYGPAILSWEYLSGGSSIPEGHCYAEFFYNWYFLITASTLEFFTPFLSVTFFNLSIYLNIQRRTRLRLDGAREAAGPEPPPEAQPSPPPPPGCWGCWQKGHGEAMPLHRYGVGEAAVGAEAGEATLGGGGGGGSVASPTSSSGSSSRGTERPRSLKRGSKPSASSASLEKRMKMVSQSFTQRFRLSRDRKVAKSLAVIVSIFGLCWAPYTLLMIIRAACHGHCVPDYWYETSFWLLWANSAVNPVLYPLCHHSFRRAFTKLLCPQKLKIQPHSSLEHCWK

| Compound | pKi |
| --- | --- |
| CN(C)CCCOc1nc2c(s1)CCN(C)C2 | 6.59 |
| CN(C)CCCOc1nc2c(s1)CCCC2 | < 6.00 |
| CN(C)CCCOc1nc2c(s1)CCOC2 | < 6.00 |
| CN(C)CCCOc1nc2c(s1)CCCC2=O | 6.82 |
| CN1CCc2sc(OCCCN3CCCCC3)nc2C1 | 7.62 |
| C1CCN(CCCOc2nc3c(s2)CCCC3)CC1 | 6.45 |
| C1CCN(CCCOc2nc3c(s2)CCOC3)CC1 | 6.46 |
| CC(=O)c1nc(OCCCN2CCCCC2)sc1C | 6.81 |
| O=C1CCCc2sc(OCCCN3CCCCC3)nc21 | < 6.00 |
| CCN1CCc2sc(OCCCN3CCCCC3)nc2C1 | 7.85 |
| c1ccc(CN2CCc3sc(OCCCN4CCCCC4)nc3C2)cc1 | 6.58 |
| C1CCN(CCCOc2nc3c(s2)CCN(CCCN2CCCCC2)C3)CC1 | 7.70 |
| Brc1nc(OCCCN2CCCCC2)sc1-c1ccccc1 | 7.03 |
| Cc1nc(OCCCN2CCCCC2)sc1-c1ccccc1 | 7.39 |
| c1ccc(-c2nc(OCCCN3CCCCC3)sc2-c2ccccc2)cc1 | 7.95 |
